# Patent US20210251955A1, “PREVENTION OF AGE RELATED CLONAL HEMATOPOIESIS AND DISEASES ASSOCIATED THEREWITH” (Yeda Research and Development Co. Ltd., priority 2018, published 2021)
# Entries after “also recorded” stand apart in the source; their conditions may differ.
# Assays:
# spliceosomal-mutant AML = conditions: Lee et al. Nat Med (2016); cited from earlier work
# [1] = system: spliceosomal-mutant leukemias; conditions: PDX, Lee et al. Nat Med (2016); cited from earlier work
# [2] = system: K562 cells (parental, SF3B1^K700E, SRSF2^P95H); assay: RNA-sequencing of parental K562 and isogenic SF3B1^K700E and SRSF2^P95H lines, differential splicing; type: cell-based; conditions: for Splicing changes relative to DMSO treatment: at the IC50 of each drug in parental K562 cells, regardless of mutation status
# Text: (§1) FIGS. 5A-D illustrate the preferential response of spliceosomal mutant hematopoietic cells to indisulam. (FIG. 5A) IC50 plots of isogenic K562 (left) and NALM-6 (right) cells to indisulam. These are cell with introduction of a spliceosomal gene mutation into the endogenous locus. (FIG. 5B) Western blots of RBM39 in the K562 cells from (FIG. 5A) at increasing doses of indisulam. (FIG. 5C) Log10 IC50 waterfall plots of response of AML cell lines with naturally occurring mutations in splicing factors to indisulam. Red bars represent cells with naturally occurring mutations in splicing factors. (FIG. 5D) Bar plot of number of differential splicing events across parental, SF3B1^K700E/WT, and SRSF2^P95H/WT K562 cells. The numbers above each bar indicate number of differentially spliced events.
# Identification and Quantification of Differential Splicing
# Isoform ratios for all alternative splicing events were quantified using MISO v2.0. Constitutively spliced exons and introns were quantified using junction-spanning reads. The conditional knockin and knockout mice were compared in a pair-wise manner, and for each pair the analysis was restricted to splicing events with 20 or more reads supporting either or both isoforms, and where the event was alternatively spliced in the sample pair. […] The human AML samples were analyzed by calculating the median isoform ratios across all 28 SRSF2 wildtype samples, and comparing that in a pair-wise manner to each SRSF2 mutant sample, using the same methodology as for the knockin and knockout mice. The Mx1-Cre^+Srsf2^+/+ or Mx1-Cre^+Srsf2^P95H/+E7107-treated mice were compared in a pair-wise manner against the median isoform ratios of their vehicle-treated counterparts, using the same methodology. For the MLL-AF9 AML transformed mice there were sufficient replicates to do a group-based comparison within the Srsf2P95H and wildtype genotypes individually (N=5 for each genotype-treatment combination). E7107- and vehicle-treated mice were compared in a two-sided Wilcoxon rank-sum test, using the total number of isoform reads within each treatment group.
# In parallel, RNA-seq was carried out of the same cell lines treated with E7107, a small molecule that inhibits splicing through impeding binding of SF3B1 to the branch point [Finci et al., Genes & Dev. (2018) 32: 309-320].
# Thus, both genetic as well pharmacologic degradation of RBM39 disrupts splicing as well as other pathways required for leukemogenicity.
# [3] = system: isogenic K562, TF-1 and NALM-6 cells expressing mutations in SF3B1, SRSF2, U2AF1; assay: Growth inhibition of isogenic leukemia lines with or without spliceosomal hotspot mutations; type: cell-based; conditions: isogenic K562, TF-1, NALM-6
# Method: (§2) (FIG. 4A) Sulfonamides bridge RBM39 to the CUL4-DDB1-DDA1-DCAF15 E3 ubiquitin ligase complex, leading to polyubiquitination and proteasomal degradation of RBM39. IC50 curves of the sulfonamide E7820 in isogenic (FIG. 4B) K562 and (FIG. 4C) NALM6 WT or mutant for SF3B1. (FIG. 4D) Western blots of RBM39 levels+[…] of the sulfonamides Indusulam or E7820 from the cells in (FIG. 4C).
# as §1
# (§3) The effects of indisulam and the sulfonamide analogue, E7820, were first examined across a panel of 18 genetically diverse AML cell lines.
# parental K562 cells = assay: IC50 in parental K562 cells; type: cell-based; conditions: Homo sapiens
# RBM39 = biological target: T1, RBM39 (Homo sapiens, UniProt Q14498+Q66K64); assay: RBM39 protein levels (Western blot) in isogenic leukemia cell lines; type: cell-based
# T1 construct: endogenous in cells; host or cells: isogenic K562 / NALM-6 (and TF-1) leukemia cells, wild type or with knock-in of spliceosomal gene mutations
# Method: as §2, §1
# The effects of indisulam and the sulfonamide analogue, E7820, were first examined across a panel of 18 genetically diverse AML cell lines. […]
# [4] = system: panel of 18 genetically diverse AML cell lines; assay: Cell viability upon sulfonamide exposure across a panel of 18 AML cell lines; type: cell-based
# Text: as §3
# [5] = system: Srsf2^P95H/WT MLL-AF9 AML cells; assay: In vitro viability (MTS) of isogenic murine MLL-AF9 AML cells, Srsf2 WT vs Srsf2 mutant; type: cell-based
# Text: FIGS. 1A-E illustrate the effects of PRMT inhibition on splicing. (FIG. 1A) Diagram of the role of PRMT5 and the type I PRMTs in splicing regulation. PRMTs methylate arginines on splicing proteins to promote spliceosome assembly and are required for proper splicing function. IC50 curves of spliceosomal mutant acute myeloid leukemia cells or their WT counterparts exposed to (FIG. 1B) the PRMT5 inhibitor GSK591 or (FIG. 1C) the PRMT1 inhibitor MS-023. Western blots of (FIG. 1D) symmetric dimethyl arginine (SDMA) or (FIG. 1E) asymmetric dimethyl arginine (ADMA) from the cells in (FIG. 1B) and […] respectively.
# FIG. 2 illustrates drug sensitivity of AML cells with SMMs or partial loss of PRMT5 to inhibitors of splicing, PRMTs, or LSD1. MLL-AF9 Srsf2^WT/WT; MLL-AF9 Srsf2^P95H/WT or MLL-AF9 Prmt5^+/− cells were treated for 7 days with the indicated compounds in 384 wells (5 increasing concentrations per compound). Viability at day 7 was scored by MTS assay and reported as the ratio over control treated cells (with equivalent dilution of DMSO). The experiment was conducted in biological triplicate, and each individual run was repeated in technical triplicate. […]
# Of note, the SF3B1 inhibitor, E7107, was used in the same assays as a positive control. […] Viability at day 7 was scored by MTS assay and reported as the ratio over control treated cells (with equivalent dilution of DMSO). […]
# [6] = system: SF3B1 as well as SRSF2-mutant AML and chronic myelomonocytic leukemia (CMML); conditions: Seiler et al., Nature Medicine (2018); cited from earlier work
molecule,measurement,setting,value
CC[C@H](O)[C@@H](C)[C@H]1O[C@@H]1C[C@@](C)(O)/C=C/C=C(\C)[C@H]1OC(=O)C[C@H](O)CC[C@@](C)(O)[C@@H](OC(=O)N2CCN(C3CCCCCC3)CC2)/C=C/[C@@H]1C [E7107],Sensitivity of spliceosomal-mutant AML over isogenic WT in vivo,spliceosomal-mutant AML,differentially sensitive
same,Eradication of leukemia,[1],complete eradication could not be achieved
same,"Human leukemic cell burden, mutant versus WT",[1],greater reduction in human leukemic cell burden
same,Splicing changes relative to DMSO treatment,[2],increased cassette exon skipping and intron retention
Cc1ccc(NS(=O)(=O)c2cccc(C#N)c2)c2[nH]cc(C#N)c12 [E7820],Preferential sensitivity of spliceosomal mutant cells to growth inhibition over wild-type,[3],preferentially sensitive
same,IC50,parental K562 cells,1000 nM
same,Degradation of RBM39,RBM39,dose-dependent degradation of RBM39
same,Differential splicing events in SF3B1^K700E cells versus SF3B1 wild-type,[2]; 1 μM E7820,greater number of differential splicing events
same,"Splicing of SUPT6H, hnRNPH and SRSF10 mRNAs",[2]; E7820 exposure,intron retention that was most pronounced in spliceosomal mutant cells
same,Splicing changes relative to DMSO treatment,[2],increased cassette exon skipping and intron retention
same,"Changes in splicing, E7820 versus E7107","[2]; equipotent non-toxic doses, within each cell type and splicing category",greater changes in splicing
same,Sensitivity (cell viability) of most cell lines,[4],sub-micromolar sensitivity
O=C(NC[C@H](O)CN1CCc2ccccc2C1)c1ccnc(NC2CCC2)c1 [GSK591],Sensitivity of Srsf2-mutant cells versus wildtype,[5],more sensitive
CC(C)Oc1ccc(-c2c[nH]cc2CN(C)CCN)cc1 [MS-023],Sensitivity of Srsf2-mutant cells versus wildtype,[5],more sensitive
NS(=O)(=O)c1ccc(S(=O)(=O)Nc2cccc3c(Cl)c[nH]c23)cc1 [indisulam],Preferential sensitivity of spliceosomal mutant cells to growth inhibition over wild-type,[3],preferential effects; also recorded: preferentially sensitive
same,Sensitivity (cell viability) of most cell lines,[4],sub-micromolar sensitivity
H3B-8800,Preferential effects in spliceosomal-mutant disease,[6],preferential effects
same,Splicing fidelity,[6],dose-dependent reductions in splicing fidelity
